Square brackets hold non-standard residues; d marks the D form. Ends that are not written are not given here. Orn = NCCC[C@H](N)C(=O)O Some results are limits rather than exact numbers.

The values that follow come from patent US7803757B2, “Peptides based on the sequence of human lactoferrin and their use” (PharmaSurgics in Sweden AB, priority 1998, dated 2010).

Common to all, as to format: cell-based
In test [1] the test system is E. coli. Briefly: MMC99% of modified peptides, E. coli (Example 25). Conditions: BHI diluted 1/100, pH approximately 6.7-6.9 (Table 21). Here is the method: (§1) In the examples, the minimal microbicidal concentrations (MMC) and minimal inhibitory concentrations (MIC) were determined as follows, unless otherwise specified in the examples. Bacterial or fungal strains were cultured in BHI medium over night at 37° C. A volume of the culture was transferred to a new tube with BHI and incubated for two more hours. Thereafter the cells were spun down and the pellet was suspended in BHI medium diluted 1/100 (1% BHI). The concentration of bacterial or fungal cells was spectrophotometrically determined at 650 nm. The microbial concentrations were also determined by viable counts. Peptides serially diluted in 1% BHI by twofold or tenfold steps were added in triplicate to the wells of a microtiterplate (200 μl per well). The bacterial or fungal cell solutions were added in 10 μl volumes to give a final concentration of approximately 1-5×10^5 cells per ml in the well. The microplate was incubated at 37° C. in a humid chamber for two hours. Thereafter 5 μl was taken from each well and added as a drop onto a blood agar plate and incubated over night at 37° C. The microplate was incubated for another 20 hours at 37° C. and thereafter analysed spectrophotometrically at 650 nm in a microplate reader (Emax, Molecular Devices, USA). The concentration of peptide causing a 99% reduction of the inoculum after 2 hours of incubation was defined as the MMC99%. The MIC value was defined as the concentration giving no increase in the absorbance value above the background level after 20 hours of incubation.
(§2) In this example the fungicidal, and bactericidal effects of the different peptides obtained in examples 18-21 were studied. C. albicans, E. coli and S. aureus, respectively, were incubated in BHI medium diluted 1/100, with a pH of approximately 6.7-6.9. The concentration of each peptide needed to kill 99% of the microorganisms (MMC99%) was determined.

For test [2], the system named is C. albicans. Description: microbicidal activity MMC99%, C. albicans (Example 28). As to conditions: C. albicans (Table 24). Here is the method: as §1
(§3) In this example the microbicidal activity of eight of the peptides according to the invention was studied, and tested against E. coli O6K5 and C. albicans.
(§4) The concentration of each peptide needed to kill 99% of the microorganisms (MMC99%) was determined.

Test [3] relates to C. albicans. Description: MMC99% of modified peptides, C. albicans (Example 25). As to conditions: BHI diluted 1/100, pH approximately 6.7-6.9 (Table 21). Here is the method: as §1, §2
In test [4] the test system is S. aureus. Briefly: MMC99% of modified peptides, S. aureus (Example 25). As to conditions: BHI diluted 1/100, pH approximately 6.7-6.9 (Table 21). Here is the method:
as §1, §2

The next test concerns C. neoformans. Description: fungicidal activity MMC99%, C. neoformans (Example 27). As to conditions: BHI diluted 1/100 (Table 23). As to the method: as §1, with “The bacterial or fungal cell solutions were added in 10 μl volumes to give a final concentration of approximately 1-5×10^5 cells per ml in the well. The microplate was incubated at 37° C. in a humid chamber for two hours. Thereafter 5 μl was taken from each well and added as a drop onto a blood agar plate and incubated over night at 37° C.” left out, “The concentration of peptide causing a 99% reduction of the inoculum after 2 hours of incubation was defined as the MMC99%.” left out
In this example the fungicidal activity of three of the peptides according to the invention was studied, and tested against three different fungi. […] The concentration of each peptide needed to kill 99% of the fungi (MMC99%) was determined.

The test system of a further test is C. glabrata. Description: fungicidal activity MMC99%, C. glabrata (Example 27). As to conditions: BHI diluted 1/100 (Table 23). Here is the method:
as §1
(§5) In this example the fungicidal activity of three of the peptides according to the invention was studied, and tested against three different fungi. The fungi were incubated in BHI medium diluted 1/100. The concentration of each peptide needed to kill 99% of the fungi (MMC99%) was determined.

A further test relates to E. coli O6K5. Description: microbicidal activity MMC99%, E. coli O6K5 (Example 28). Conditions: E. coli O6K5 (Table 24). As to the method:
as §1, §3, §4

For test [5], the system named is C. albicans. Briefly: fungicidal activity MMC99%, C. albicans (Example 27). Conditions: BHI diluted 1/100 (Table 23). Here is the method: as §1, §5
In another test the test system is P. aeruginosa. Briefly: killing of bacteria at fixed peptide concentration, P. aeruginosa (Example 12). As to conditions: peptide 25 μg/ml. As to the method: (§6) In this example, the peptides according to the invention were used to study the effect on the killing of different bacteria.
(§7) The peptides were used at a concentration of 25 μg/ml.

Test [6] has as its system S. aureus. Briefly: killing of bacteria at fixed peptide concentration, S. aureus (Example 12). Conditions: peptide 25 μg/ml. As to the method: as §6, §7
A further test deals with S. epidermis. Briefly: killing of bacteria at fixed peptide concentration, S. epidermis (Example 12). As to conditions: peptide 25 μg/ml. As to the method: as §6, §7
Test [7] deals with C. albicans yeast cells (ATCC64549). Briefly: killing and growth inhibition of C. albicans at pH 4.5 (Example 11). Details: key to C. albicans inhibition (OD650): + = no increase in OD650 is seen; − = OD650 continues to increase. As to conditions: pH 4.5, 1% BHI, 25 μg/ml of the peptide. The method, boiled down: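 Yeast cells exposed 2 h at pH 4.5 to 25 µg/ml peptide in 1% BHI, then plated on blood agar. Killing scored as 100% and 99% fungicidal effect; growth inhibition read as no OD650 increase after a further 18 h.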

Test [8] relates to C. albicans. Description: MMC99% of modified peptides, C. albicans (Example 26). As to conditions: BHI diluted 1/100, pH approximately 6.7-6.9 (Table 22). Here is the method: as §1
(§8) In this example the fungicidal, and bactericidal effects of the different peptides obtained in example 22 were studied. C. albicans, E. coli and S. aureus, respectively, were incubated in BHI medium diluted 1/100, with a pH of approximately 6.7-6.9. The concentration of each peptide needed to kill 99% of the microorganisms (MMC99%) was determined.

The next test has as its system K. pneumoniae. Briefly: killing of bacteria at fixed peptide concentration, K. pneumoniae (Example 12). Conditions: peptide 25 μg/ml. As to the method:
as §6, §7

In test [9] the test system is E. coli. Description: MMC99% of modified peptides, E. coli (Example 26). As to conditions: BHI diluted 1/100, pH approximately 6.7-6.9 (Table 22). Here is the method:
as §1, §8

For test [10], the system named is S. aureus. Briefly: MMC99% of modified peptides, S. aureus (Example 26). Conditions: BHI diluted 1/100, pH approximately 6.7-6.9 (Table 22). As to the method:
as §1, §8

The test system of a further test is C. albicans (ATCC64549). In a few lines:
(§9)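 Microbes at ~1–5×10^5 cells/mL in 1% BHI exposed to peptides (1, 10, 25, 100 µg/ml) at 37 °C. MMC99%: concentration killing 99% of inoculum after 2 h, by spotting onto blood agar. MIC: no absorbance rise at 650 nm above background after a further 20 h.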

Another test has as its system E. coli O6. The method, boiled down: as §9
A further test has as its system E. faecalis. Description: killing of bacteria at fixed peptide concentration, E. faecalis (Example 12). As to conditions: peptide 25 μg/ml. As to the method: as §6, §7

For the substance “C-F-Q-W-Orn-R-N-M-R-K-V-R (CFQW[Orn]RNMRKVR) [SEQ. ID. NO. 87]”, the MMC99% with E. coli [1] is listed as 6; with C. albicans [2] it was 5; with C. albicans [3], 3; in the test with S. aureus [4], “≦3.5”; in the test on C. neoformans, 3.1; in the test on C. glabrata, >50. Further, the results for the MMC99% in the test with E. coli O6K5 and with C. albicans [5] were 5 and 6.3, respectively.

In general, MIC refers to the smallest concentration in the dilution series that meets the test's criterion for growth inhibition. Regarding “CFQWQRNMRKVR [Peptide 46, C-F-Q-W-Q-R-N-M-R-K-V-R]”, in the test with P. aeruginosa, the “killing of bacteria: P. aeruginosa” value is recorded as “+ (+ = 99% of the bacteria are killed)”. The “killing of bacteria: S. aureus” value with S. aureus [6] was “+ (+ = 99% of the bacteria are killed)”. Besides, the MMC99% worked out at 12 with E. coli [1]; 10 in the test with C. albicans [2]; 12 in the test on C. albicans [3]; 7 in the test with S. aureus [4]; 12 with C. albicans [8]; 6 in the test on E. coli [9]. For the same substance, the MMC99% in the test on C. glabrata is 50; in the test on E. coli O6K5, 10; in the test with C. albicans [5], 12.5; in the test with S. aureus [10], 12; with C. albicans (ATCC64549) (C. albicans, tested at 1, 10, 25 and 100 μg/ml of peptide) it was 10 µg/mL; in the test on E. coli O6 (E. coli O6, tested at 1, 10, 25 and 100 μg/ml of peptide), 10 µg/mL. In addition, the “killing of bacteria: S. epidermis” value in the test with S. epidermis is listed as “+ (+ = 99% of the bacteria are killed)”. Besides, the “C. albicans inhibition (OD650)” value in test [7] (OD650 after an additional 18 hours) is listed as “+”. Also, the “C. albicans killing: 99%” value in test [7] (2 hours) is “+ (+ = 100/99% of the bacteria are killed)”. Moreover, the “C. albicans killing: 100%” value in [7] (2 hours) is given as “+ (+ = 100/99% of the bacteria are killed)”. Also, the “killing of bacteria: K. pneumoniae” value with K. pneumoniae is recorded as “+ (+ = 99% of the bacteria are killed)”. Further, the MIC in the test on C. albicans (ATCC64549) (ATCC64549) and against E. coli O6 (O6) was 10 µg/mL throughout. Also, the “killing of bacteria: E. faecalis” value with E. faecalis is “+ (+ = 99% of the bacteria are killed)”.
